Among the data in ChEMBL document CHEMBL1140183, “Bornyl- and isobornyl-Delta8-tetrahydrocannabinols: a novel class of cannabinergic ligands” (J Med Chem, 2008) are Ki values, retold here.

For one assay, the target named is Cannabinoid receptor 1 (Rattus norvegicus, UniProt P20272). The experiment in a line: Displacement of [3H]CP-55940 from CB1 receptor in rat brain synaptosome membrane. It is filed as cell membranes. A general note: In a radioligand displacement assay an active substance lowers the binding of a labelled ligand.
The target in a further assay is Cannabinoid receptor 2 (Mus musculus, UniProt P47936). The experiment in a line: Displacement of [3H]CP-55940 from CB2 receptor in mouse spleen membrane. Type of assay: cell membranes.
Chain of Cannabinoid receptor 2 (P47936 whole entry): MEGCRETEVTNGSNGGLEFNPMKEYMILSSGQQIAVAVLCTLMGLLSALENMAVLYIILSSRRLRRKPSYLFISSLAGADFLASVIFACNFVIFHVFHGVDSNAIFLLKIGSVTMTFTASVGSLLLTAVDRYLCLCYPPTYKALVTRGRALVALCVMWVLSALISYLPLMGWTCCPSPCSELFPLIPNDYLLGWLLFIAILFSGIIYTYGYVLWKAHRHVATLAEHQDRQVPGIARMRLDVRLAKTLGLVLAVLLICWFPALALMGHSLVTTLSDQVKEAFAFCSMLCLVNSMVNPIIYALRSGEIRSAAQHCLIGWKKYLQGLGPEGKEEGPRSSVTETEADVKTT

Chain of Cannabinoid receptor 1 (P20272 whole entry): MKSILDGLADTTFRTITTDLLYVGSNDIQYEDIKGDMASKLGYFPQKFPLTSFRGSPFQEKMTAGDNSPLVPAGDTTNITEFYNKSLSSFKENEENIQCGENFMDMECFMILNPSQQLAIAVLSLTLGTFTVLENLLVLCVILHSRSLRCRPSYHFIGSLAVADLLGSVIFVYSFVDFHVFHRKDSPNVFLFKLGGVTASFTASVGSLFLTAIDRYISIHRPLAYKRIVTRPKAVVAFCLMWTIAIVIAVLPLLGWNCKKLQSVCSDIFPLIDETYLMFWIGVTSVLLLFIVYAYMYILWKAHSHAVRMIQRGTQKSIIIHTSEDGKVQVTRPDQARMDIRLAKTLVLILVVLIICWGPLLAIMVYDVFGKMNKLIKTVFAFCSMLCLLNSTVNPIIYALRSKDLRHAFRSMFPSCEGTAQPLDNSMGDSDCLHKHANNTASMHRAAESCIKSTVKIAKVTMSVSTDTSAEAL

`CC1=CC[C@@H]2[C@@H](C1)c1c(O)cc([C@@H]3C[C@@H]4CC[C@]3(C)C4(C)C)cc1OC2(C)C`: the Ki on Cannabinoid receptor 1 was found to be 60.2 nM; on Cannabinoid receptor 2, 6.1 nM.

For `CC1=CC[C@@H]2[C@@H](C1)c1c(ccc(C[C@@H]3C[C@@H]4CC[C@]3(C)C4(C)C)c1O)OC2(C)C`, the Ki at Cannabinoid receptor 1 stood at 49 nM; at Cannabinoid receptor 2, 49.5 nM.

Consider `CC1=CC[C@@H]2[C@@H](C1)c1c(O)cc([C@H]3C[C@@H]4CC[C@]3(C)C4(C)C)cc1OC2(C)C`, for which the inhibition constant (Ki) on Cannabinoid receptor 1 was determined as 8.9 nM; at Cannabinoid receptor 2, 7.4 nM.

Consider `CC1=CC[C@@H]2[C@@H](C1)c1c(ccc(C[C@H]3C[C@@H]4CC[C@]3(C)C4(C)C)c1O)OC2(C)C`, for which the Ki at Cannabinoid receptor 1 came to 32.7 nM; at Cannabinoid receptor 2, 30.5 nM.

In general, Ki refers to the dissociation constant of the complex between target and ligand, obtained from inhibition or displacement. Lower therefore signals tighter binding.
